US6365643B1, “Photoinitiators for cationic curing” (Th. Goldschmidt AG, priority 1999, dated 2002)
Where two headings read alike, the source gives them in different places.

Assays:
[1] = Solubility in white spirit; assay type: physicochemical
Excerpt: The solubility of the cationic photoinitiators of the invention was compared with the solubility of commercial, hydroxyl-bearing cationic photoinitiators.

[2] = Miscibility with organopolysiloxanes containing epoxy groups; assay type: physicochemical

For `CCCCCCCCCCCCC(O)COc1ccc([I+]c2ccccc2)cc1` (stereo not drawn) [CD-1012], which “solubility in white spirit” value [1] is on record?
The value was “insoluble”.

What about the “solubility in white spirit” value ([1]; Table 1, Comparison 1) of the same compound?
The value was “insoluble”.

And the “miscibility with organopolysiloxanes containing epoxy groups” value [2]?
Its value is “no miscibility”.
